Measured values published in US5187165A, “Memory enhancing and analgesic 1,2,3a,8,8a-hexahydro-3a,8(and 1,3a,8)-di(and tri)methylpyrrolo[2,3-b]indoles” (priority 1988, dated 1993).
Where two headings read alike, the source gives them in different places.

Legend:
[1] = target: T1, butyrylcholinesterase (Serum AChE) (Homo sapiens, UniProt P06276); test: In Vitro Inhibition of Butyrylcholinesterase Activity in Human Serum; assay type: biochemical
T1 construct: A vial of lyophilized human serum; purchased Biodynamics, Houston, Tex; (Precilip); host or cells: lyophilized human serum, reconstituted in water; enzyme not purified
T1 sequence (P06276 29-602): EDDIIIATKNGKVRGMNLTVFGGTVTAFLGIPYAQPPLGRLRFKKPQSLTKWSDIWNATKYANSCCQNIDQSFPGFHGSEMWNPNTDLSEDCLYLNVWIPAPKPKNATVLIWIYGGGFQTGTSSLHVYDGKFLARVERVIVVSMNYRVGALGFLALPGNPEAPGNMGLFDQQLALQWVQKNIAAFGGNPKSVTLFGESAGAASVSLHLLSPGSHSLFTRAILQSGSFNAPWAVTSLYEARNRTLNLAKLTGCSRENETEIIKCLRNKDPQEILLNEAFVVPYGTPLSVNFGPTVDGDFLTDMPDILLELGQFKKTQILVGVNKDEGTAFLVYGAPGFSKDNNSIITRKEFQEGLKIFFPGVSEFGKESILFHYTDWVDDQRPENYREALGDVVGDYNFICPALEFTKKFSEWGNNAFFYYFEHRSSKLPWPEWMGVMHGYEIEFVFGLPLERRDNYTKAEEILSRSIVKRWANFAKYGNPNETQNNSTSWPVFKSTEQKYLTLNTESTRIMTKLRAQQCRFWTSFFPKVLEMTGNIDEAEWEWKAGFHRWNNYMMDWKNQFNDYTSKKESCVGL
Text: (§1) Cholinesterases are found throughout the body, both in the brain and in serum. However, only brain acetylcholinesterase (AChE) distribution is correlated with central cholinergic innervation. […] We have determined in vitro inhibition of acetylcholinesterase activity in rat striatum and in vitro inhibition of butrylcholinesterase activity in human serum according to the methods described below.
This assay can be used in conjunction with the acetylcholinesterase assay to determine the enzyme selectivity of various chloinesterase inhibitors.
Butyrylcholinesterase (BChE), which is sometimes called pseudocholinesterase, preferentially hydrolyzes butyrylcholine. This enzyme is found in the highest amounts in serum, but its physiological role is not known.
(§2) (a) 9.9 mg 5,5-dithiobisnitrobenzoic acid (DTNB) (0.25 mM)
(b) 113 mg s-butyrylthiochloine chloride (5 mM)
(§3) (c) q.s. to 100 ml with 0.05M phosphate buffer, pH 7.2 (reagent 1)
A vial of lyophilized human serum (Precilip, Biodynamics, Houston, Tex. is reconstituted in 3 ml of distilled water. A 10 microliter aliquot of this suspension is added to 90 microliter of the vehicle or various concentrations of the test drug and preincubated for 10 minutes at room temperature.
Substantially the same procedure is used as described above in Section C of the Procedure used for determining the inhibition of acetylcholinsterase activity.

[2] = target: T2, acetylcholinesterase (Brain AChE) (Rattus norvegicus, UniProt P37136); test: In Vitro Inhibition of Acetylcholinesterase Activity in Rat Striatum; assay type: biochemical
T2 construct: corpora striata dissected free, weighed and homogenized in 19 volumes; from tissue; host or cells: corpora striata of male Wistar rats, crude homogenate in phosphate buffer
T2 sequence (P37136 32-614): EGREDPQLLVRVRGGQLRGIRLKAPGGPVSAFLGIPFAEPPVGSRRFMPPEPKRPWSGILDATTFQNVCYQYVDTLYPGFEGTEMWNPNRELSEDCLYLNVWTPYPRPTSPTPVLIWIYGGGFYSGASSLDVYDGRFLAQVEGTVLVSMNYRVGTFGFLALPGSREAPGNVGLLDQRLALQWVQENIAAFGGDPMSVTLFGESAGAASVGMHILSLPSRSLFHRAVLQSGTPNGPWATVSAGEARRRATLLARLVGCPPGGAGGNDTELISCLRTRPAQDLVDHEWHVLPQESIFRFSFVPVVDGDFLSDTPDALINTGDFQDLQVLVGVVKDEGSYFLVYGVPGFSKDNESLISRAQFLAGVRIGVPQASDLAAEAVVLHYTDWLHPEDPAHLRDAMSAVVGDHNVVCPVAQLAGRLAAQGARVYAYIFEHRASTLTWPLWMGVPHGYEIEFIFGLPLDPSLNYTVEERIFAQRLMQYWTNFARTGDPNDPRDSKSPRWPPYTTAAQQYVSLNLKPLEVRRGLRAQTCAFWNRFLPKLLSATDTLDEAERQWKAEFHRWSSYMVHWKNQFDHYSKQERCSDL
Text: as §1
The method described below was used in this invention for assaying cholinesterase activity. This is a modification of the method of Ellman et al., Biochem. Pharmacol. 7, 98 (1961).
1. 0.05M Phosphate buffer, pH 7.2
as §2
(b) 99 mg s-acetylthiocholine chloride (5 mM)
as §3
Male Wistar rats are decapitated, brains rapidly removed, corpora striata dissected free, weighed and homogenized in 19 volumes (approximately 7 mg protein/ml) of 0.05M phosphate buffer, pH 7.2 using a Potter-Elvehjem homogenizer. A 50 microliter aliquot of the homogenate is added to 50 microliter vehicle of various concentrations of the test drug and preincubated for 10 minutes at room temperature.
1. For routine IC50 determinations the Abbott Bichromatic Analyzer, ABA-100, is used to determine acetylcholinesterase activity.
Incubation temperature: 30° C.
Following the 10 minute preincubation of the tissue (enzyme) with the inhibitor, the samples are mixed with the substrate chromogen buffer by the ABA-100. Using the indicated instrument settings the ABA-100 automatically reads the color reaction and prints out the results in enzyme units after 15 minutes.
2. The enzyme activity can also be measured with Gilford 250 spectrophotometer. This method is used for more accurate kinetic measurments.
Reagents are added to the reference and sample side of a split curvette as follows.
The uninhibited activity of the enzyme (tissue homogenate) is first determined. Test drugs are made up in a suitable solvent and added in suitable dilutions to the buffer vehicle. The reaction rate is determined by the slope of the recorded absorbance change. The actual rate (moles/liter/min) can be calculated as described in the following formula
rate(moles/liter/min)=slope/(1.36×10^4).

[3] = tested on: yohimbine toxicity; test: animal or person; assay type: in vivo, mice; conditions: for ED50: Mus musculus, po, 18 h, read-out: YTP ED50
Description: The potentiation of yohimbine toxicity is considered an additional test for screening antidepressant drugs. The method used in this invention is as follows:
Male mice weighing 20 to 30 grams are used. They are housed under standard laboratory conditions with free access to food and water. Compounds are dissolved in distilled water and a suitable surfactant is added in case of poor solubility. Yohimbine hydrochloride is dissolved in distilled water as well. Both compound and yohimbine are administered in a volume of […].
Compounds and vehicle are administered orally 60 minutes prior to a sublethal dose (30 mg/kg s.c.) of yohimbine hydrochloride which alone causes death in about […] of mice (4 out of 400). Ten mice per group are then placed in plastic cages (26×10×16 cm) with food and water available ad libitum. Mortality rate is assessed 18 hours postdosing. ED50 is defined as dose of drug causing death in 5/10 mice and is calculated by probit analysis.

[4] = tested on: scopolamine-induced memory deficit; test: Dark Avoidance Assay (scopolamine induced memory deficit reversal); assay type: in vivo, mice; conditions: Mus musculus, sc, 24 h, read-out: % of Animals with Scopolamine Induced Memory Deficit Reversal
Description: In this assay mice are tested for their ability to remember an unpleasant stimulus for a period of 24 hours. A mouse is placed in a chamber that contains a dark compartment; a strong incandescent light drives it to the dark compartment, where an electric shock is administered through metal plates on the floor. The animal is removed from the testing apparatus and tested again, 24 hours later, for the ability to remember the electric shock.
If scopolamine, an anticholinergic that is known to cause memory impairment, is administered before an animal's initial exposure to the test chamber, the animal re-enters the dark compartment shortly after being placed in the test chamber 24 hours later. This effect of scopolamine is blocked by an active test compound, resulting in a greater interval before re-entry into the dark compartment.
The results for an active compound are expressed as the percent of a group of animals in which the effect of scopolamine is blocked, as manifested by an increased interval between being placed in the test chamber and re-entering the dark compartment.

[5] = tested on: norepinephrine uptake; assay type: biochemical; conditions: rat brain synaptosomes, 50 nM 3H-NE, 37° C., 5 min; read-out: Reuptake Inhibition of neurotransmitters, Norepinephrine
[6] = tested on: tetrabenazine-induced ptosis; test: Prevention of Tetrabenazine-Induced Ptosis In Mice (TBZ); assay type: in vivo
Text: Tetrabenazine (TBZ) induces behavioral depression with concomitant ptosis in mice similar to reserpine. Antidepressant compounds, both monoamineoxidase inhibitors and tricyclics, are known to prevent or antagonize these effects and the degree of antagonism correlates with clinical efficacy. The prevention of TBZ-induced ptosis in mice is used as a preliminary screen for possible antidepressant activity. The method used in this invention is as follows:
Male mice weighing 20 to 30 grams are used in test groups of five subjects. All compounds are dissolved or suspended with a suitable surfactant in distilled water and administered in volumes of 10 ml/kg of body weight. TBZ solution is made from the methanesulfonate salt and the concentration is adjusted to enable administration of 60 mg/kg of base by intraperitoneal (i.p.) injection.
The pretreatment time is measured from the time of dosing to observation. Therefore, when a […] pretreat is utilized, drug and TBZ are given simultaneously. A control group receives solvent and TBZ at intervals identical to drug group. For a primary screen, the drug is administered i.p. and a group size of five is utilized. Eight animals/group are used for a dose range.
Thirty minutes after TBZ, the subjects are placed in individual plastic containers (10.5×8×6 inches) in the presence of white noise and one minute after the transfer, they are scored for ptosis on the following scale: Eyes closed=4, eyes 3/4 closed=3, eyes 1/2 closed=2, eyes 1/4 closed=1, eyes open=0. The total score for each group of five in a primary screen will, therefore, be from 0 to 20 and these scores are used as indications of drug activity.
The vehicle control group score is used as a determinant of the validity of each test. If the control score is less than 17, the results are discarded and the test repeated. The calculation of percent inhibition of ptosis is: [formula]
Linear regression analysis is used to estimate ED50 values and 95% confidence intervals.

[7] = Acute toxicity (LD50); assay type: in vivo; conditions: death within 24 hours; for LD50: i.p., 1440 min; for LD50 at 24 h: in vivo, ip
Description: LD50 is determined by the dose (mg/kg) at which 50% of the test animals die within 24 hours. In many cases this dose is an approximation.

[8] = target: T2, acetylcholinesterase (Brain AChE); conditions: background statement; brain vs serum AChE; cited from earlier work
[9] = target: T1, butyrylcholinesterase (Serum AChE); conditions: background statement; cited from earlier work
[10] = tested on: butyrylcholinesterase; conditions: ex vivo; cited from earlier work
[11] = tested on: norepinephrine uptake; conditions: background statement; cited from earlier work

With `C[C@H](NC(=O)Oc1ccc2c(c1)[C@]1(C)CCN(C)[C@@H]1N2C)c1ccccc1` (relative stereo) [(3aS-cis)-1,2,3,3a,8,8a-Hexahydro-1,3a,8-trimethylpyrrolo[2,3-b]indol-5-ol,[(S*)-(1-phenyl)ethyl] carbamate ester] the IC50 [1] was greater than 1000 µM, the IC50 [2] was 3.1 µM and the ED50 [3] was 30 mg/kg. For the same compound, the responders at 0.31 mg/kg [4] was 20%, the IC50 [5] was 2.2 µM and the “% Inhibition, TBZ” value ([6]; 20 mg/kg) was 35%. It also gave an LD50 [7] of less than 80 mg/kg and an LD50 at 24 h [7] greater than 40 mg/kg.
With `CN1CC[C@@]2(C)c3cc(OC(=O)NC4CCCCC4)ccc3N(C)[C@@H]12` [(3aS-cis)-1,2,3,3a,8,8a-Hexahydro-1,3a,8-trimethylpyrrolo[2,3-b]indol-5-ol,cyclohexyl carbamate ester] the IC50 [1] was greater than 1000 µM, the IC50 [2] was 0.9 µM and the responders at 0.16 mg/kg [4] was 31%. For the same compound, the “% Inhibition, TBZ” value ([6]; 1.25 mg/kg) was 20%, the LD50 [7] was less than 10 mg/kg and the LD50 at 24 h [7] was greater than 5 mg/kg.
In the case of `CNC(=O)Oc1ccc2c(c1)[C@]1(C)CCN(C)[C@@H]1N2C` [Physostigmine, (3aS-cis)-1,2,3,3a,8,8a-hexahydro-1,3a,8-trimethylpyrrolo[2,3-b]indol-5-ol, methyl carbamate ester, reference compound], the “specificity of AChE inhibition” value [8] is given as “an unspecific AChE inhibitor”, the responders at 0.31 mg/kg ([4]; mice, 0.31 mg/kg s.c.) is given as 20% and the IC50 [5] is given as greater than 20 µM. It also gave an LD50 at 24 h [7] of roughly 3 mg/kg.
With `C[C@@H](NC(=O)Oc1ccc2c(c1)[C@]1(C)CCN(C)[C@@H]1N2C)c1ccccc1` (relative stereo) [(3aS-cis)-1,2,3,3a,8,8a-Hexahydro-1,3a,8-trimethylpyrrolo[2,3-b]indol-5-ol,[(R*)-(1-phenyl)ethyl] carbamate ester] the IC50 [1] was 0.9 µM, the IC50 [2] was 1.2 µM and the ED50 [3] was 16.1 mg/kg. For the same compound, the responders at 1.25 mg/kg [4] was 67%, the IC50 [5] was 12 µM and the “% Inhibition, TBZ” value ([6]; 20 mg/kg) was 50%. The LD50 at 24 h [7] was roughly 40 mg/kg.
In the case of `CC(C)NP(=O)(NC(C)C)OP(=O)(NC(C)C)NC(C)C` [ISO-OMPA, tetraisopropyl pyrophosphoramide], the “selectivity of inhibition of butyrylcholinesterase” value [9] is given as “selective inhibitors of butyrylcholinesterase” and the “cholinomimetic effects correlated with butyrylcholinesterase inhibition” value [10] is given as “not correlated with any significant acute chloinomimetic effects”.
For `C[C@@H]1O[C@@H](O[C@H]2C[C@@H](O)[C@]3(CO)[C@H]4[C@H](O)C[C@]5(C)[C@@H](C6=CC(=O)OC6)CC[C@]5(O)[C@@H]4CC[C@]3(O)C2)[C@H](O)[C@H](O)[C@H]1O` [ouabain], the “inhibition of NE uptake” value [11] is given as “inhibited”.
For `CCN(CC)C(C)CN1c2ccccc2Sc2ccccc21` (centres unmarked) [Ethopropazine], the “selectivity of inhibition of butyrylcholinesterase” value [9] is listed as “selective inhibitors of butyrylcholinesterase”.
For `CN1CC[C@@]2(C)c3cc(OC(=O)Nc4cccc(Cl)c4)ccc3N(C)[C@@H]12` [(3aS-cis)-1,2,3,3a,8,8a-Hexahydro-1,3a,8-trimethylpyrrolo[2,3-b]indol-5-ol,3-chlorophenyl carbamate ester], the IC50 [1] was greater than 1000 µM, the IC50 [2] was 0.6 µM and the “% Inhibition, YTP” value ([3]; mice, oral, 80 mg/kg) was 63%. For the same compound, the responders at 5 mg/kg [4] was 20%, the IC50 [5] was 1.8 µM and the “% Inhibition, TBZ” value ([6]; 60 mg/kg) was 45%. It also gave an LD50 at 24 h [7] greater than 80 mg/kg.
For `COC(=O)[C@H]1[C@@H](OC(=O)c2ccccc2)C[C@@H]2CC[C@H]1N2C` [cocaine], the “inhibition of NE uptake” value [11] is listed as “potently inhibited”.
In the case of `CC(COc1ccccc1)N(CCCl)Cc1ccccc1` (centres unmarked) [phenoxybenzamine], the “inhibition of NE uptake” value [11] is given as “inhibited”.
